The results in this text go back to patent publication US20250304596A1, “PYRAZINE DERIVATIVES AND USES THEREOF” (FOGHORN THERAPEUTICS INC., priority 2022, published 2025).

The structures appear in SMILES notation.

Assay [1] has as its target T1, HiBit-BRM fusion protein (Homo sapiens, UniProt P51531).
T1 construct: expressed in transfected cells
Kind of assay: HiBiT-BRM cell-based degradation assay (Nano-Glo HiBiT Lytic Detection, 24 h). The conditions noted are these: stable HeLa cell line expressing HiBiT-BRM; for DC50: read-out: BRM HiBit Degradation IC50. Put shortly: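 A stable HeLa line expressing HiBiT-BRM was treated for 24 h with compound in a 10-point, 3-fold series (30 μM final top dose). Remaining HiBiT-BRM was read by lytic LgBiT complementation luminescence. % degradation was normalised to DMSO (high control) and 2 μM reference BRM/BRG1 degrader (low control).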
On the technique in general: With HiBiT, luminescence reflects the tagged protein that the partner subunit can reach.

In assay [2] the target is T2, HiBit-BRG1 fusion protein (Homo sapiens, UniProt P51532).
T2 construct: expressed in transfected cells
T2 sequence (P51532 whole entry, the tested form may be a part): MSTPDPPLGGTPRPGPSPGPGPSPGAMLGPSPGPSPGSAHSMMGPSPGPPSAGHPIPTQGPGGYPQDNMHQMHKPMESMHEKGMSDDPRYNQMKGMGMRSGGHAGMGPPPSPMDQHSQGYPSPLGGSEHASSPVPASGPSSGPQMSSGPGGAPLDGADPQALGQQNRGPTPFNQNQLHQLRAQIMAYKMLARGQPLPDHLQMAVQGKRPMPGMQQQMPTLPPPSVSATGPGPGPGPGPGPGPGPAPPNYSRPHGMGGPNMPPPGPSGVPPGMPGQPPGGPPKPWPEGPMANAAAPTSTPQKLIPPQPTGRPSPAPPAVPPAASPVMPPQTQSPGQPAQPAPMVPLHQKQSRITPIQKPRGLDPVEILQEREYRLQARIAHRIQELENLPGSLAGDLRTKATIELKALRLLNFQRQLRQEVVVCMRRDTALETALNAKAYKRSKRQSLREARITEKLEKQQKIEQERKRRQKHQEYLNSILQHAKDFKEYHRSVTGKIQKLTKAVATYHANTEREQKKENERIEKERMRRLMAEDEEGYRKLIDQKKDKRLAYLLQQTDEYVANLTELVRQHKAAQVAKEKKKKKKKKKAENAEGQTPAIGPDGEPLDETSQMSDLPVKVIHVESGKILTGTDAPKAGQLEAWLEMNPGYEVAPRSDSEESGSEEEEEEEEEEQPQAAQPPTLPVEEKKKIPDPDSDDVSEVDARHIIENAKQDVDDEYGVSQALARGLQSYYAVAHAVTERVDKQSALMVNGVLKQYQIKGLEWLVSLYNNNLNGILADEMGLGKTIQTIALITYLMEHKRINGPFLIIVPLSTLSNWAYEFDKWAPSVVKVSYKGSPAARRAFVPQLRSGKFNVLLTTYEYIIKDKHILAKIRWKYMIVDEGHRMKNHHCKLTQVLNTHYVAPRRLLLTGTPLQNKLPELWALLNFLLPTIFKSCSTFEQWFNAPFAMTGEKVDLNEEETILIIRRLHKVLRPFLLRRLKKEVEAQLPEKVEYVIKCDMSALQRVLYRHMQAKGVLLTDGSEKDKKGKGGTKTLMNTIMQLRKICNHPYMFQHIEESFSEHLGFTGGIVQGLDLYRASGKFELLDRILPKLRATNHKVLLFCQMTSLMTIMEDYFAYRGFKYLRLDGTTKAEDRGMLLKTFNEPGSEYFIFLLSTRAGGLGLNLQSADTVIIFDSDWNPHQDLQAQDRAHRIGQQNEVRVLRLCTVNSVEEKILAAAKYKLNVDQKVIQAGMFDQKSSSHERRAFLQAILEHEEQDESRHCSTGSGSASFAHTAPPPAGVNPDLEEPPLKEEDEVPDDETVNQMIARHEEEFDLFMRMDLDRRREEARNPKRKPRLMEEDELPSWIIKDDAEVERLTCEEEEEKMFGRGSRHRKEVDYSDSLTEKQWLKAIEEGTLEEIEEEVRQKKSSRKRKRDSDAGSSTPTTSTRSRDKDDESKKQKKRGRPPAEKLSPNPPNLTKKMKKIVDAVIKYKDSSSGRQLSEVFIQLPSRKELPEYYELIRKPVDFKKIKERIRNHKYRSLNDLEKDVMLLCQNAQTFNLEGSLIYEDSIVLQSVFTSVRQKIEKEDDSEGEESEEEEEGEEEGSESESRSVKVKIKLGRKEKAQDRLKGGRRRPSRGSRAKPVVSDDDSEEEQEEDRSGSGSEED
The experiment in a line: HiBiT-BRG1 cell-based degradation assay (Nano-Glo HiBiT Lytic Detection, 24 h). The settings on record: stable HeLa cell line expressing HiBit-BRG1 and LgBit; for Dmax: read-out: BRG1 HiBit Degradation Maximum (%); for DC50: read-out: BRMG1 HiBit Degradation IC50. Put shortly:
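HeLa cells stably expressing HiBit-BRG1 and LgBit, treated 24 h with 3-fold dilutions (10 points, duplicate, 30 μM final top dose). Luminescence read after Nano-Glo HiBiT lytic reagent; % degradation scaled between DMSO (high) and 2 μM reference BRM/BRG1 degrader (low control).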

T1 sequence (P51531 whole entry, the tested form may be a part): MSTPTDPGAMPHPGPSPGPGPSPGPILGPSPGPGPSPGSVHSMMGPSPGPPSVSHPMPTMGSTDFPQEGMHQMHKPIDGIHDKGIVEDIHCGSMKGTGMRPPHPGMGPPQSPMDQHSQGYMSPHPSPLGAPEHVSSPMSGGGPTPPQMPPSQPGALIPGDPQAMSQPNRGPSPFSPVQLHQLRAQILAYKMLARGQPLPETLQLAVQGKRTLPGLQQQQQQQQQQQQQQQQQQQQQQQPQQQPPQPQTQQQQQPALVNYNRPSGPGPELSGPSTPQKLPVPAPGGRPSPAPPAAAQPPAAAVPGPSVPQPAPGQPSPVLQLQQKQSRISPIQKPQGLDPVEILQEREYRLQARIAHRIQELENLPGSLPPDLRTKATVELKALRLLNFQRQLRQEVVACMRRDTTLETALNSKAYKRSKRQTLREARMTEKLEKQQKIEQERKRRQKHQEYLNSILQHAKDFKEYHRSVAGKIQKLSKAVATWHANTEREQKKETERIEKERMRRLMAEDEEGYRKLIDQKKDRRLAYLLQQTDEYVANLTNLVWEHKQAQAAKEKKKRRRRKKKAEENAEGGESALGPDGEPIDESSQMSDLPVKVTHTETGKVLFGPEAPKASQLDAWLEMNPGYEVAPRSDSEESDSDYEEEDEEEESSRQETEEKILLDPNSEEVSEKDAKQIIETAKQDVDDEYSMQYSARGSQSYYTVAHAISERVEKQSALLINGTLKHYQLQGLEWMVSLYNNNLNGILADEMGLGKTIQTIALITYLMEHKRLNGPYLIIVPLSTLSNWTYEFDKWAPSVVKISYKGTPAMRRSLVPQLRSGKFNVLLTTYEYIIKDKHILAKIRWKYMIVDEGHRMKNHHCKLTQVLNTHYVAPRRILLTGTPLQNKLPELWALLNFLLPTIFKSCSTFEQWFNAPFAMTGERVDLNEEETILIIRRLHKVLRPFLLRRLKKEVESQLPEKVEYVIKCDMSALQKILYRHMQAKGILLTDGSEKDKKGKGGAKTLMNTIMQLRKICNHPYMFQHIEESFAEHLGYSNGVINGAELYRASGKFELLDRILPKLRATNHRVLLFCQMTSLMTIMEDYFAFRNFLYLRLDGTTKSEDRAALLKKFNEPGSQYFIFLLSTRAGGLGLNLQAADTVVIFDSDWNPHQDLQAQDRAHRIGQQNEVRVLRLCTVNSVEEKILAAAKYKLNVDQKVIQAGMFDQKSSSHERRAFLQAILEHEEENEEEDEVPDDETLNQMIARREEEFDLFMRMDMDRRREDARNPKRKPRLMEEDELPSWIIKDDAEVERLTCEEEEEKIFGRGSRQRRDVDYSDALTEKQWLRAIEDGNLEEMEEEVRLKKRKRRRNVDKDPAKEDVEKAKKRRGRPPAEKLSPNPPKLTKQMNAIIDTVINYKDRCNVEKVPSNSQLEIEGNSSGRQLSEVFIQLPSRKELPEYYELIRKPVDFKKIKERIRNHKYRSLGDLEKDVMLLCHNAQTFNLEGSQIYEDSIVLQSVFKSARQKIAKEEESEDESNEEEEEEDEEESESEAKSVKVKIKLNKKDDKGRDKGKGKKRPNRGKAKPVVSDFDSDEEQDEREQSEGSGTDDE

As for `Cc1ncsc1-c1ccc([C@H](C)NC(=O)[C@@H]2C[C@@H](O)CN2C(=O)[C@@H](c2cc(-c3cnc(N4CC[C@@H](c5sc6nnc(-c7ccccc7O)cc6c5C)C4)nc3)no2)C(C)C)cc1` [Compound 47, (2S,4R)-4-hydroxy-1-((R)-2-(3-(2-((R)-3-(3-(2-hydroxyphenyl)-5-methylthieno[2,3-c]pyridazin-6-yl)pyrrolidin-1-yl)pyrimidin-5-yl)isoxazol-5-yl)-3-methylbutanoyl)-N-((S)-1-(4-(4-methylthiazol-5-yl)phenyl)ethyl)pyrrolidine-2-carboxamide], in assay [1], the “BRM HiBit Degradation Maximum (%)” value is “A (“A” indicates maximum degradation ≥75%)” and the DC50 is greater than 0.01 µM. Further, in assay [2], the Dmax was greater than 75% and the DC50 is less than 0.01 µM.

In the case of `Cc1nc(N2CC[C@@H](c3sc4nnc(-c5ccccc5O)cc4c3C)C2)ccc1-c1cc([C@H](C(=O)N2C[C@H](O)C[C@H]2C(=O)N[C@@H](C)c2ccc(-c3scnc3C)cc2)C(C)C)on1` [Compound 94, (2S,4R)-4-hydroxy-1-((R)-2-(3-(6-((R)-3-(3-(2-hydroxyphenyl)-5-methylthieno[2,3-c]pyridazin-6-yl)pyrrolidin-1-yl)-2-methylpyridin-3-yl)isoxazol-5-yl)-3-methylbutanoyl)-N-((S)-1-(4-(4-methylthiazol-5-yl)phenyl)ethyl)pyrrolidine-2-carboxamide], in assay [1], the “BRM HiBit Degradation Maximum (%)” value is “A (“A” indicates maximum degradation ≥75%)” and the DC50 is greater than 0.01 µM. In assay [2], the Dmax was less than 50%.

Consider `Cc1ncsc1-c1ccc([C@H](C)NC(=O)[C@@H]2C[C@@H](O)CN2C(=O)[C@@H](c2cc(Oc3cnc(N4CCC(c5sc6nnc(-c7ccccc7O)cc6c5C)CC4)nc3)no2)C(C)C)cc1` (single isomer, unassigned) [Compound 51], for which, in assay [1], the “BRM HiBit Degradation Maximum (%)” value is given as “A (“A” indicates maximum degradation ≥75%)” and the DC50 is greater than 0.01 µM. In assay [2], the Dmax is less than 50% and the DC50 was greater than 1 µM.

With `Cc1cc(N2CC[C@@H](c3sc4nnc(-c5ccccc5O)cc4c3C)C2)ncc1-c1cc([C@H](C(=O)N2C[C@H](O)C[C@H]2C(=O)N[C@@H](C)c2ccc(-c3scnc3C)cc2)C(C)C)on1` [Compound 96, (2S,4R)-4-hydroxy-1-((R)-2-(3-(6-((R)-3-(3-(2-hydroxyphenyl)-5-methylthieno[2,3-c]pyridazin-6-yl)pyrrolidin-1-yl)-4-methylpyridin-3-yl)isoxazol-5-yl)-3-methylbutanoyl)-N-((S)-1-(4-(4-methylthiazol-5-yl)phenyl)ethyl)pyrrolidine-2-carboxamide], in assay [1], the “BRM HiBit Degradation Maximum (%)” value is recorded as “B (“B” indicates maximum degradation ≥50%)” and the DC50 was greater than 0.01 µM. In addition, the Dmax in assay [2] was less than 50%.

Regarding `Cc1ncsc1-c1ccc([C@H](C)NC(=O)[C@@H]2C[C@@H](O)CN2C(=O)[C@@H](c2cc(N3CC4(CC(c5sc6nnc(-c7ccccc7O)cc6c5C5CC5)C4)C3)no2)C(C)C)cc1` [Compound 87, (2S,4R)-1-[(2R)-2-(3-{6-[5-cyclopropyl-3-(2-hydroxyphenyl)thieno[2,3-c]pyridazin-6-yl]-2-azaspiro[3.3]heptan-2-yl}-1,2-oxazol-5-yl)-3-methylbutanoyl]-4-hydroxy-N-[(1S)-1-[4-(4-methyl-1,3-thiazol-5-yl)phenyl]ethyl]pyrrolidine-2-carboxamide], in assay [1], the “BRM HiBit Degradation Maximum (%)” value was “A (“A” indicates maximum degradation ≥75%)” and the DC50 was less than 0.01 µM. The Dmax in assay [2] is less than 50%.

Regarding `Cc1ncsc1-c1ccc([C@H](C)NC(=O)[C@@H]2C[C@@H](O)CN2C(=O)[C@@H](c2cc(N3CCN(c4sc5nnc(-c6ccccc6O)cc5c4C)CC3)no2)C(C)C)cc1` [Compound 80, (2S,4R)-4-hydroxy-1-((R)-2-(3-(4-(3-(2-hydroxyphenyl)-5-methylthieno[2,3-c]pyridazin-6-yl)piperazin-1-yl)isoxazol-5-yl)-3-methylbutanoyl)-N-((S)-1-(4-(4-methylthiazol-5-yl)phenyl)ethyl)pyrrolidine-2-carboxamide], in assay [1], the “BRM HiBit Degradation Maximum (%)” value was “A (“A” indicates maximum degradation ≥75%)” and the DC50 is greater than 0.01 µM. For the same compound, in assay [2], the Dmax is less than 50%.
